Results as given in ChEMBL document CHEMBL5209566, “Superclomeleon biosensor-based assay for SLC26A9 using HEK293 SLC26A9 JumpIn OE cells” (2022).

Target: T1, Solute carrier family 26 member 9 (Homo sapiens) (UniProt Q7LBE3)
T1 sequence (whole entry): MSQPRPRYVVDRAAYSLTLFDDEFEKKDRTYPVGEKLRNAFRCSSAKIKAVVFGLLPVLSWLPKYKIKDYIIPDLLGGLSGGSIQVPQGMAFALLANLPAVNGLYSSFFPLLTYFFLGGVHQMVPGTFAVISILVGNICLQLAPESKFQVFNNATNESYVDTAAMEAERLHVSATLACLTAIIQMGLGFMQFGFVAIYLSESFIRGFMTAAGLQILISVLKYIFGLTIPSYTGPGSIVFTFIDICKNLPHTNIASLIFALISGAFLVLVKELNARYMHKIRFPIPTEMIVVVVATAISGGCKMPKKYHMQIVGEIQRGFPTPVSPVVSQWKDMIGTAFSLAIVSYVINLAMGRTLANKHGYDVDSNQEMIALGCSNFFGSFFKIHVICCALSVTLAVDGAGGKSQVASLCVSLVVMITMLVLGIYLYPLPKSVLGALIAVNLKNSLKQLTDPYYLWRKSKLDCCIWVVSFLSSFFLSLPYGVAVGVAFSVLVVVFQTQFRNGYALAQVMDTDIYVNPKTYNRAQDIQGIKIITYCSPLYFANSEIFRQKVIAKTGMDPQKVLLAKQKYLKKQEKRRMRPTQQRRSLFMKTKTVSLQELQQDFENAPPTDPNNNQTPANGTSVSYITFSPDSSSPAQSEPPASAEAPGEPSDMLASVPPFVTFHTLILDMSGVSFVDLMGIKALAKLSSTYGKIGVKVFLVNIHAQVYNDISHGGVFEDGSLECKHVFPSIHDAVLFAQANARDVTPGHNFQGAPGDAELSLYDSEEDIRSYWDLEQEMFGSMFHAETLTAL
Test: Chloride uptake by the Anion Transporter/Exchanger Protein 9 (SLC26A9) as assessed by a Cl- sensitive FRET (Fluorescence Resonance Energy Transfer) sensor (SuperClomeleon) in HEK-293 cells stably transfected with SLC26A9 (PubChem AID: 1794832)
Assay type: functional, cell-based
Details: HEK293

Inhibition (500 µM) [%] | Compound | proof of principle
 | Cl | Substrate. In Comparison To Wild-Type, Cells Expressing Slc26A9 Showed A Specific Transporter Activity, Upon Substrate Addition, Detected As Significantly Higher Sensor Fluorescence Quenching.
> 30 | O=C(O)c1cccnc1Nc1cccc(C(F)(F)F)c1 | 
